Tests used:
[1] = Rat telemetry protocol, core body temperature; assay type: in vivo; details: core body temperature of rats one hour post dosing, 100 μmol/kg p.o., relative to vehicle
How it was run: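 Male Sprague Dawley rats (225–250 g) with intraperitoneal telemetry transmitters, 2-week recovery. Single oral 100 μmol/kg dose in 10% EtOH/20% Tween-80/70% PEG-400; core body temperature recorded every 15 min over 24 h.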

CYP2D6 = molecular target: T1, CYP2D6 (Homo sapiens, UniProt P10635); test: in vitro; assay type: in vitro ADME; details: microsomes, 2.2 µM
T1 construct: human liver microsomes (BD Gentest); tissue BD Gentest; host or cells: human liver microsomes
T1 sequence (P10635 whole entry): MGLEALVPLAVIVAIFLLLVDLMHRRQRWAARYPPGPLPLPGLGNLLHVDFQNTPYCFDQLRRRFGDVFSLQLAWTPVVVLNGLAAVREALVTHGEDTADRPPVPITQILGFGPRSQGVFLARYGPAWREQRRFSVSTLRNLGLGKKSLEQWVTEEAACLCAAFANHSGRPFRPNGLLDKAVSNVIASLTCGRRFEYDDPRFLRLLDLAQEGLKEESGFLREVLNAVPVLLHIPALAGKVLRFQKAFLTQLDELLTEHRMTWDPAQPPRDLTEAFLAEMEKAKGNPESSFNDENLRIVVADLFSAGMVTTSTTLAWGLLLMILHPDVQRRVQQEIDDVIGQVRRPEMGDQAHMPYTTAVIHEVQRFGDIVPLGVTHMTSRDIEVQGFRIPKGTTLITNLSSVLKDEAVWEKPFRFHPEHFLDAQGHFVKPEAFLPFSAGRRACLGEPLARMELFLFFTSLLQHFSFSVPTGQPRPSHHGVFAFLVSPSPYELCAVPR
Experimental: Stock solutions of test compounds were assayed in 96-well format for their ability to inhibit CYP2C9, CYP2D6, or CYP3A4 mediated metabolism of test substrates. Luciferin-H was used as the substrate for CYP2C9; 3-[2-(N,N-diethyl-N-methylammonium)ethyl]-7-methoxy-4-methylcoumarin (AMMC) was used as the substrate for CYP2D6; 7-benzyloxyquiniline (BZQ) was used as the substrate for CYP3A4. For each subtype, positive controls (sulphaphenazole in the case of CYP2C9; quinidine in the case of CYP2D6, ketoconazole in the case of CYP3A4) were used to validate assay results run in duplicate.
Pre-Incubation Mixture Preparation for CYP2C9 and CYP2D6: A pre-incubation mixture was prepared by combining 100 mM phosphate buffer (9.12 mL; pH 7.4), human liver microsomes (BD Gentest, 240 itt; final concentration: 0.4 mg/mL), and 10 mM nicotinamide adenine dinucleotide phosphate in 65.4 mM MgCl2 hexahydrate (120 μL; final concentration: 125 μM and 818 μM, respectively). To this was mixture is added a ‘regeneration’ mixture (120 μL) of 333 mM glucose-6-phosphate and 40 U/mL glucose-6-phosphate dehydrogenase in 5 mM sodium citrate (final concentration: 4 mM, 0.5 U/mL, and 0.06 mM, respectively).
Substrate Mixture Preparation for CYP2D6: To a solution of 100 mM phosphate buffer, (2.80 mL, pH 7.4) was added 10 mM AMMC in acetonitrile (14 itt; final solution concentration 0.05 mM, final assay concentration 10 μM).
(§1) CYP2D6 Inhibiton Assay: To each well in the assay plate containing varying concentrations of test compound or control compound in DMSO (10 μL), Pre-Incubation Mixture (40 μL) was added to the wells and the assay plate was pre-incubated for 10 minutes at 37° C., with shaking or rocking. A pre-read of each well was performed at 390 nm and 460 nm extinction/emission. CYP2D6 Substrate Mixture (10 μL) was added to all wells and the assay plate was incubated for an additional […] at 37° C., with shaking or rocking. Final DMSO concentration was 1%. A post-read of each well was then performed at 390 nm and 460 nm extinction/emission.

CYP3A4 = molecular target: T2, CYP3A4 (Homo sapiens, UniProt P08684); test: CYP3A4 inhibition assay; assay type: in vitro ADME; details: human liver microsomes, substrate BZQ
T2 construct: human liver microsomes (BD Gentest, 450 μL; final concentration: 0.4 mg/mL); tissue BD Gentest; host or cells: human liver microsomes
T2 sequence (P08684 whole entry): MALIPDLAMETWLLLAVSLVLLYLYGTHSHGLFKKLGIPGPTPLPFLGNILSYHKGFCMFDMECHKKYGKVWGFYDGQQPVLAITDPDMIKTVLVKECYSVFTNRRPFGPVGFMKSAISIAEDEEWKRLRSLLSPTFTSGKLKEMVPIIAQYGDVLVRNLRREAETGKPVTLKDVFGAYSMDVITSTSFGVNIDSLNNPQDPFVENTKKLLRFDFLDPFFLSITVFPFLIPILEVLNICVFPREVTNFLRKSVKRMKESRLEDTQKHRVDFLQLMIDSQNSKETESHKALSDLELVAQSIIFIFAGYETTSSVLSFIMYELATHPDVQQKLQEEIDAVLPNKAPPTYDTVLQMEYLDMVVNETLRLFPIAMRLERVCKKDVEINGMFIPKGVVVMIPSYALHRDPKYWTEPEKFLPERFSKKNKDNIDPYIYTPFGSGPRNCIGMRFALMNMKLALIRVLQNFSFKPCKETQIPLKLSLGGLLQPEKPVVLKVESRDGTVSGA
Experimental: Luciferin-H was used as the substrate for CYP2C9; 3-[2-(N,N-diethyl-N-methylammonium)ethyl]-7-methoxy-4-methylcoumarin (AMMC) was used as the substrate for CYP2D6; 7-benzyloxyquiniline (BZQ) was used as the substrate for CYP3A4.
Pre-Incubation Mixture Preparation for CYP3A4: A pre-incubation mixture was prepared by combining 100 mM phosphate buffer (19.35 mL; pH 7.4), human liver microsomes (BD Gentest, 450 μL; final concentration: 0.4 mg/mL), and 10 mM nicotinamide adenine dinucleotide phosphate in 65.4 mM MgCl2 hexahydrate (225 μL; final concentration: 100 μM and 654 μM, respectively). To this was mixture was added a ‘regeneration’ mixture (225 μL) of 333 mM glucose-6-phosphate and 40 U/mL glucose-6-phosphate dehydrogenase in 5 mM sodium citrate (final concentration: 3.3 mM, 0.4 U/mL, and 0.05 mM, respectively).
Substrate Mixture Preparation for CYP3A4: To a solution of 100 mM phosphate buffer, (2.36 mL, pH 7.4) was added 30 mM BZQ in acetonitrile (40 μL; final solution concentration 0.5 mM, final assay concentration 50 μM).
as §1, with “CYP3A4” for “CYP2D6”, “μL), CYP3A4” for “μL),”, “(90” for “(40”, “405” for “390”, “535” for “460”

Substance | Δ Temp (° C.) [1] [°C] | CYP2D6 % inh @ 2.2 μM) (CYP2D6) [%] | CYP3A4 % inh @ 2.2 μM (CYP3A4) [%]
N-[(4R)-2,2-diethyl-8-fluoro-3,4-dihydro-2H-chromen-4-yl]-N-(3-methylisoquinolin-5-yl)urea [Example 62] | −0.5 | 9.1 | 0
N-[(4R)-6,8-difluoro-2,2-dimethyl-3,4-dihydro-2H-chromen-4-yl]-N-(3-methylisoquinolin-5-yl)urea [Example 98] | 0.0 | 3.7 | 0
N-[(4R)-6,8-difluoro-2,2-dimethyl-3,4-dihydro-2H-chromen-4-yl]-N′-isoquinolin-5-ylurea [Example 17] | −1.5 | 100 | 63
N-[(4R)-7-fluoro-2,2,8-trimethyl-3,4-dihydro-2H-chromen-4-yl]-N-(3-methylisoquinolin-5-yl)urea [Example 111] | −1.3 | 0.87 | 0
